The text below walks through data of paper PMC6327263, “Evaluation of Novel 3-Hydroxyflavone Analogues as HDAC Inhibitors against Colorectal Cancer” (Advances in Pharmacological Sciences, 2018).

For one assay, the system named is VERO cells. In words: MTT cytotoxicity assay, Vero. The format is cell-based, African green monkey. Particulars: Chlorocebus sabaeus, 48 h, mean ± SEM of three experiments. Here is the method:
(§1) Human colorectal carcinoma cell line (HCT116) and African green monkey kidney epithelial cells (VERO) were obtained from National Centre for Cell Science, Pune, MH, India. For their maintenance, the cells were grown in Dulbecco's Modified Eagle's Medium (DMEM) which was supplemented with 10% fetal bovine serum (FBS) and 1 × penicillin/streptomycin at 37°C in CO2 incubator (NU-5501E/G, NuAire Inc., Plymouth, MN, USA) in a humidified atmosphere of 5% CO2 and 95% air.
(§2) Cytotoxicity for the synthesized analogues was determined using MTT assay. In brief, HCT116 and VERO cells were harvested from the tissue culture flask and seeded in sterile 96 well plates at a density of 5000 cells per well. After overnight adherence, different concentrations of test compounds were added and incubated for 48 h. Next, 50 µl of the MTT reagent (HiMedia Laboratories, Mumbai, India) (2 mg/ml in the sterile phosphate buffer saline (PBS)) was added into each well and incubated for 3 h. The formazan crystals formed were solubilized using 100% dimethyl sulfoxide (DMSO), and the optical density was measured at 540 nm using the microplate reader (ELx800, BioTek Instruments Inc., Winooski, VT, USA).
On the technique in general: Tetrazolium assays rely on reduction of a dye to a coloured formazan, in cell work by metabolically active cells.

For assay [1], the system named is HDAC enzyme in HCT116 cells. In words: Whole cell HDAC inhibition assay. The format is cell-based. Particulars: Homo sapiens, HCT-116, HCT116, 18 h treatment, mean ± SEM of three experiments. Here is the method: Confluent HCT116 cells were harvested and seeded in 96 well sterile black well plates at a density of 2000 cells per well and incubated overnight. Furthermore, the cells were treated with different concentrations of test compounds for a period of 18 h followed by the addition of […] BOC-Ac-Lys-AMC substrate and incubated for 1 h. […] The reaction was then allowed to proceed for 15 min at 37°C. Finally, the fluorescence intensity was measured at 360 nm excitation and 460 nm emission using a fluorescence microplate reader (FLx800, BioTek Instruments Inc., Winooski, VT, USA).

In assay [2] the test system is HCT116 cells. As to the kind of experiment: MTT cytotoxicity assay, HCT116. The class given is cell-based, human. Particulars: Homo sapiens, HCT-116, 48 h, mean ± SEM of three experiments. Here is the method:
as §1, §2

The subject of assay [3] is HCT116 cells. In words: Cell cycle analysis. The format is cell-based, human. Particulars: HCT116, 48 h; SAHA 5 µM, quercetin 100 µM, QMJ-2 100 µM, QMJ-5 50 µM; normal control 29.2%. Here is the method: Cell cycle analysis was performed to estimate the effect of synthesized analogues on the different phases of the cell cycle. In brief, 1 × 10^6 cells were seeded in the cell culture dish and allowed to attach overnight followed by incubation with test compounds. After 48 h, the cells were detached by trypsinization, centrifuged, and washed with PBS. The cell pellets were fixed in 70% v/v ice cold ethanol and stored at −20°C for 24 h. After fixing, the pellets were dislodged in PBS and stained with propidium iodide solution and analyzed using Accuri C6 flow cytometer (BD Biosciences, San Jose, CA, USA).

In assay [4] the test system is caspase 3/7 in HCT116 cells. As to the kind of experiment: Caspase 3/7 activation assay. The class given is cell-based, human. Particulars: SAHA 5 µM, quercetin 100 µM, QMJ-2 100 µM, QMJ-5 50 µM, normal control 24.60%. The procedure:
The downstream signaling pathway of apoptosis was determined using the caspase 3/7 activation assay. In brief, as per the caspase 3/7 activation kit protocol (#MCH100108), 1 × 10^6 cells were seeded in the cell culture dish and after overnight adherence, were incubated with the test compounds. The cells were detached by trypsinization, centrifuged, and washed with PBS. Cell suspension (50 µl) was mixed with the caspase 3/7 antibody reagent (5 µl) and incubated at 37°C temperature for 30 min. 7-AAD (7-amino-actinomycin D) working solution (150 µl) was added, and stained cells were then analyzed in Muse Cell Analyzer (#0500-3115 Merck Millipore).

The test system of the next assay is p21^Waf1/Cip1. As to the kind of experiment: Western blotting, p21Waf1/Cip1 expression. The class given is cell-based, human. Particulars: HCT116 cells, 24 h, compared to normal control. The procedure: (§3) After various treatments for 24 h, cells were lysed, and protein quantification of the lysates was estimated using the BCA™ kit (Thermo Fisher Scientific Inc., Waltham, MA, USA). Proteins samples (30 µg) were resolved on a 10% SDS-PAGE and transferred onto a PVDF membrane and blocked with 5% nonfat milk in TBST (tris-buffered saline with Tween-20) buffer for 1 h followed by washing in TBST buffer. The membrane was then probed with primary antibodies (GAPDH, HDAC8, p21^Waf1/Cip1, and acetyl-histone H3[Ac-Lys^9]) and incubated overnight at 4°C. The membrane was washed with TBST buffer and incubated with horseradish peroxidase-conjugated secondary antibody for 1 h at room temperature. Signal was captured using SuperSignal™ West Pico Plus chemiluminescent substrate (Thermo Fischer Scientific Inc., Waltham, MA, USA) on gel documentation system (G : BOX Chemi XRQ, Syngene).
For orientation: A western blot detects proteins with antibodies after separation by electrophoresis.

The test system of another assay is HDAC8. As to the kind of experiment: Western blotting, HDAC8 expression. The class given is cell-based, human. Particulars: HCT116 cells, 24 h, compared to normal control. The procedure:
as §3

In the next assay the test system is acetyl histone H3K9. In words: Western blotting, acetyl histone H3K9 expression. The format is cell-based, human. Particulars: HCT116 cells, 24 h, compared to normal control. Here is the method: as §3, with “Syngene). The protein band densities were estimated using the software ImageJ (version 1.46r, NIH, Bethesda, MD, USA).” for “Syngene).”
Assay [5] concerns HCT116 cells. In words: Annexin V staining. Particulars: SAHA 5 µM, quercetin 100 µM, QMJ-2 100 µM, QMJ-5 50 µM, normal control 21.30%. The class given is cell-based, human. Here is the method:
Mechanism of cell death induced by synthesized analogues was determined using annexin V staining. In brief, as per annexin V flow cytometry kit protocol (#MCH100105), 1 × 10^6 cells were seeded in a cell culture dish and after overnight adherence, were incubated with test compounds. Cells were then detached by trypsinization, centrifuged, and washed with PBS. Cell suspension (100 µl) was mixed with Muse annexin V reagent (100 µl) and incubated for 20 min at room temperature. The stained cells were quantitatively analyzed for live, early, and late apoptosis using Muse cell analyzer (#0500-3115 Merck Millipore).

Another assay deals with DMH-induced colon cancer. The class given is in vivo, Wistar rats. Particulars: 5-FU 10 mg/kg i.p. Here is the method: The two test compounds (QMJ-2 and QMJ-5) and quercetin were suspended in 0.25% w/v sodium carboxymethyl cellulose (CMC) and were administered orally (p.o.). 5-Fluorouracil (5-FU) which was used as a standard was procured in the form of injection and was administered intraperitonially (i.p.).
Colon cancer in experimental animals was induced using the highly specific carcinogen DMH, with few modifications from the previously described procedure. DMH was administered at a dose of 30 mg/kg i.p. once a week for 20 weeks. The incidence of aberrant crypt foci (ACF) and adenocarcinoma were confirmed by sacrificing few animals after 20 weeks of induction with DMH. Furthermore, the animals were randomized into five experimental groups, and various treatments were administered for a period of 21 days followed by the assessment of different parameters in the experimental animals.
(1) Experimental Groups • Group 1: animals received 0.25% CMC in water p.o. • Group 2: animals received 0.25% CMC in water p.o. (DMH control) • Group 3: animals received 5-FU at 10 mg/kg i.p. • Group 4: animals received quercetin at 100 mg/kg p.o. • Group 5: animals received QMJ-2 at 100 mg/kg p.o. • Group 6: animals received QMJ-5 at 100 mg/kg p.o.
(2) ACF Formation and Adenocarcinoma Incidence. The entire colon was excised from the experimental animals and was used to study the incidence of adenocarcinoma. The count and size were noted from each animal. For ACF formation, the distal part of the colon was excised, and the tissue was then cut open and fixed with 10% buffered formalin for 12 h. Following this, the tissue was stained with 0.1% methylene blue in PBS for 5 min. The tissues were then observed under microscope for ACF formation and were calculated as the number of counts/5 cm^2 in colon tissue.
(3) Colon Weight/Length Ratio and Organ Index. Length of the excised colon was measured in centimeters, and weight was measured in g. Colon weight/length ratio was then calculated. For the determination of organ index, major organs including spleen, liver, and kidney of the experimental animals were weighed in g and the respective index was calculated. […]

Structures are written as SMILES. “And” between values parts separate entries of the source, which are not always exact repeats. Equal values may be shown once. Marks after values point to notes of the source that are not given here.

What is called IC50 is the concentration at which inhibition is half-maximal. The low end stands for greater potency, the high end for weaker potency. For `COc1ccc2c(=O)c(O)c(-c3ccc(C)cc3)oc2c1` [QMJ-6, 3-Hydroxy-7-methoxy-2-(4-methylphenyl)-4H-1-benzopyran-4-one], the IC50 in the assay with VERO cells was 153 ± 2.3 µM; in assay [1], 984.2 ± 2.5 µM; in the assay with HCT116 cells [2], 94 ± 2.1 µM.
Taken in the same sequence, the figures for `CN(C)c1ccc(-c2oc3ccccc3c(=O)c2O)cc1` [QMJ-1, 2-[4(Dimethylamino)phenyl]-3-hydroxy-4H-1-benzopyran-4-one] were 186 ± 4.9 µM, 1023 ± 5.2 µM and 102 ± 1.8 µM.
For the compound `O=C(CCCCCCC(=O)Nc1ccccc1)NO` [SAHA, reference compound], the “percentage of cells in G2/M phase” value in the assay with HCT116 cells [3] stood at 37.5%. In assay [4], the “percentage of apoptotic cells (Apoptotic/Dead, caspase 3/7)” value is 56.30%. Also, in the assay with p21^Waf1/Cip1, the “expression of p21^Waf1/Cip1” value is “increased”. The HDAC8 expression result with HDAC8 is “significant reduction”. Further, the “expression of acetylated histone H3K9” value in the assay with acetyl histone H3K9 is “significant increase”. The “percentage of cells undergoing late apoptosis (Late Apop./Dead, annexin V)” value with HCT116 cells [5] amounted to 27.65%.
Take `Cc1ccc(-c2oc3ccc(C)cc3c(=O)c2O)cc1` [QMJ-4, 3-Hydroxy-6-methyl-2-(4-methylphenyl)-4H-1-benzopyran-4-one]: the IC50 in the assay with VERO cells was > 400 µM; in assay [1] it was 1011 ± 3.4 µM; with HCT116 cells [2], > 400 µM.
With `Cc1ccc2oc(-c3ccc(N(C)C)cc3)c(O)c(=O)c2c1` [QMJ-3, 2-[4-(Dimethylamino)phenyl]-3-hydroxy-6-methyl-4H-1-benzopyran-4-one], the figures for the IC50 (with VERO cells; in [1]; with HCT116 cells [2]) were 80.1 ± 3.7 µM, 1124 ± 6.2 µM and 70.3 ± 4.1 µM, respectively.
Consider `O=c1[nH]cc(F)c(=O)[nH]1` [5-FU, 5-Fluorouracil, reference compound], for which the “ACF/5 cm^2” value in the assay on DMH-induced colon cancer (21 days treatment, quercetin, QMJ-2, QMJ-5 100 mg/kg p.o., DMH control 25 ± 2.1, mean ± SEM of six animals) is 10 ± 1.3 /5 cm^2 and 10 ± 1.3^a /5 cm^2. Moreover, the colon weight/length ratio entry in the assay on DMH-induced colon cancer (compared with DMH control, others 100 mg/kg p.o., 21 days) is reported as “significantly (p < 0.05) reduced”. For the same compound, in the assay on DMH-induced colon cancer (count in colon, 21 days treatment, quercetin, QMJ-2, QMJ-5 100 mg/kg p.o., DMH control 17 ± 1.7, mean ± SEM of six animals), the Adenocarcinoma was 8 ± 1.1^a.
